Measured values taken from ChEMBL document CHEMBL1135219, “Anti-HIV-1 activities and pharmacokinetics of new arylpiperazinyl fluoroquinolones” (Bioorg Med Chem Lett, 2002).
pIC50: −log10 of the molar value.

Legend:
[1] = Peak concentration (Cmax) at a dose of 20 mg/kg in rats; type: ADME, organism-based; design: dose 20 mg/kg; conditions: rat, in vivo
[2] = Time for peak concentration (tmax) at a dose of 20 mg/kg in rats; type: ADME, organism-based; design: dose 20 mg/kg; conditions: rat, in vivo
MT4 [3] = assay: The compound was tested for cytotoxicity against mock-infected MT-4 cells.; type: functional; conditions: Homo sapiens
MT4 [4] = assay: The compound was tested against HIV-1(IIIB) replication on the inhibition of virus -induced cytopathogenicity in MT-4 cells.; type: functional, cell-based; conditions: Homo sapiens
MT4 [5] = assay: The compound was tested against HIV-1(IIIB) replication on the inhibition of virus -induced cytopathogenicity in MT-4 cells; type: functional, cell-based; conditions: Homo sapiens
MT4 [6] = assay: The compound was tested for cytotoxicity against mock-infected MT-4 cells; type: functional; conditions: Homo sapiens
[7] = Half-life period after intravenous administration in cynomolgus monkeys; type: ADME, organism-based; conditions: cercopithecidae, in vivo
[8] = Half-life period after oral administration in cynomolgus monkeys; type: ADME, organism-based; conditions: cercopithecidae, in vivo
[9] = Area under curve was determined using trapezoidal rule after intravenous administration in cynomolgus monkeys; type: ADME; conditions: cercopithecidae, in vivo
[10] = Area under curve was determined using trapezoidal rule after oral administration in cynomolgus monkeys; type: ADME; conditions: cercopithecidae, in vivo
[11] = Bioavailability was reported in cynomolgus monkeys (ratio of AUC in oral administration to that of intravenous administration); type: ADME, organism-based; conditions: cercopithecidae, in vivo, read-out: BA
[12] = The time for peak concentration value after oral administration in cynomolgus monkeys; type: ADME, organism-based; conditions: cercopithecidae, in vivo
[13] = Mean residence time was determined after intravenous administration in cynomolgus monkeys; type: ADME, organism-based; conditions: cercopithecidae, in vivo
[14] = The peak concentration (Cmax) value after oral administration in cynomolgus monkeys; type: ADME, organism-based; design: route oral; conditions: cercopithecidae, in vivo
[15] = The distribution volume after intravenous administration in cynomolgus monkeys; type: ADME, organism-based; conditions: cercopithecidae, in vivo, read-out: Vdss
[16] = The total clearance was determined after intravenous administration in cynomolgus monkeys; type: ADME, organism-based; conditions: cercopithecidae, in vivo, read-out: CLtotal (converted)
[17] = Peak concentration (Cmax) at a dose of 10 mg/kg in rats; type: ADME, organism-based; design: dose 10 mg/kg; conditions: rat, in vivo
[18] = Time for peak concentration (tmax) at a dose of 10 mg/kg in rats; type: ADME, organism-based; design: dose 10 mg/kg; conditions: rat, in vivo

Structure (SMILES)	Cmax [1] [µg/mL]	Tmax [2] [h]	CC50 (MT4 [3]) [µM]	pIC50 (MT4 [4])	pIC50 (MT4 [5])	CC50 (MT4 [6]) [µM]	further results
CCn1cc(C(=O)O)c(=O)c2cc(F)c(N3CCN(c4ccccn4)CC3)c(C(F)(F)F)c21	6.74	2	0.37	7.59			
COc1ccccc1N1CCN(c2c(F)cc3c(=O)c(C(=O)O)cn(C)c3c2C(F)F)CC1					6.46	11	
Cn1cc(C(=O)O)c(=O)c2cc(F)c(N3CCN(c4ccccn4)CC3)c(C(F)(F)F)c21	26.4	1	0.22	7.85			half-life [7]: 8.8 h; half-life [8]: 7.5 h; AUC [9]: 18.4 µg·h/mL; AUC [10]: 17.2 µg·h/mL; bioavailability [11]: 93.5%; Tmax [12]: 2 h; MRT [13]: 9.3 h; Cmax [14]: 1.4 µg/mL; Vd [15]: 0.509 L/kg; clearance [16]: 0.0557 L/h/kg
CCn1cc(C(=O)O)c(=O)c2cc(F)c(N3CCN(c4ncccn4)CC3)c(C(F)(F)F)c21	5.46	2	1.5	7.02			
Cn1cc(C(=O)O)c(=O)c2cc(F)c(N3CCN(c4ncccn4)CC3)c(C(F)(F)F)c21	58.5	1	0.89	7.31			half-life [7]: 7.6 h; half-life [8]: 8.7 h; AUC [9]: 16.4 µg·h/mL; AUC [10]: 18.4 µg·h/mL; bioavailability [11]: 112%; Tmax [12]: 4 h; MRT [13]: 8.2 h; Cmax [14]: 1.5 µg/mL; Vd [15]: 0.491 L/kg; clearance [16]: 0.0651 L/h/kg
CCn1cc(C(=O)O)c(=O)c2cc(F)c(N3CCN(c4ccccn4)CC3)c(C(F)F)c21					6.05	4.1	
CCn1cc(C(=O)O)c(=O)c2cc(F)c(N3CCN(c4ccccc4OC)CC3)c(C(F)(F)F)c21			0.75	6.96			
O=C(O)c1cn(C2CC2)c2c(C(F)F)c(N3CCN(c4ncccn4)CC3)c(F)cc2c1=O					5.43	21	
COc1ccccc1N1CCN(c2c(F)cc3c(=O)c(C(=O)O)cn(C4CC4)c3c2C(F)F)CC1			12	6.25			
O=C(O)c1cn(C2CC2)c2c(C(F)F)c(N3CCN(c4ccccn4)CC3)c(F)cc2c1=O					6.31	9.2	
O=C(O)c1cn(C2CC2)c2c(C(F)(F)F)c(N3CCN(c4ccccn4)CC3)c(F)cc2c1=O	5.83	2	1.4	7.19			half-life [7]: 0.7 h; AUC [9]: 3.5 µg·h/mL; bioavailability [11]: 4.3%; Tmax [12]: 2 h; MRT [13]: 0.8 h; Cmax [14]: 0.1 µg/mL; Vd [15]: 0.225 L/kg; clearance [16]: 0.293 L/h/kg
CCn1cc(C(=O)O)c(=O)c2cc(F)c(N3CCN(c4ncccn4)CC3)c(C(F)F)c21			20	6.33			
Cn1cc(C(=O)O)c(=O)c2cc(F)c(N3CCN(c4ncccn4)CC3)c(C(F)F)c21			13	6.51			
Cn1cc(C(=O)O)c(=O)c2cc(F)c(N3CCN(c4ccccn4)CC3)c(C(F)F)c21					6.62	9.2	
CCn1cc(C(=O)O)c(=O)c2cc(F)c(N3CCN(c4ccccc4OC)CC3)c(C(F)F)c21					6.66	8.3	
COc1ccccc1N1CCN(c2c(F)cc3c(=O)c(C(=O)O)cn(C4CC4)c3c2C(F)(F)F)CC1	3.46	4	0.87	7.16			
O=C(O)c1cn(C2CC2)c2c(C(F)(F)F)c(N3CCN(c4ncccn4)CC3)c(F)cc2c1=O	7.02	1	5.2	6.72			
COc1ccccc1N1CCN(c2c(F)cc3c(=O)c(C(=O)O)cn(C)c3c2C(F)(F)F)CC1			0.5	7.27			Cmax [17]: 2.77 µg/mL; Tmax [18]: 2 h
